# Reference: patent US9617225B2 (VIROSTATICS SRL, priority 2012, dated 2017)
# pIC50: −log10 of the molar value. Counter-ions that a name gives are not always drawn. Like-named read-outs stand apart in the source and are kept apart here.
# How the values were obtained:
# [1] = target: human CDK9/CyclinT kinase complex (Homo sapiens (Human), UniProt P50750); assay: In Vitro CDK9/CyclinT Assay (IMAP fluorescent polarization); type: biochemical
# Protocol: In Vitro CDK9/CyclinT Assay
# The activity of the compounds described in the present invention can be determined by measuring the phosphorylation of a fluorescently-labeled peptide by human CDK9/CyclinT kinase complex by fluorescent polarization using a commercially available IMAP Screening Express Assay Kit (Molecular devices).
# Test compounds were diluted in 100% DMSO to 5 mM stock concentration, then further dilutions were made in H2O or 100% DMSO to desirable concentrations. Each reaction consisted of 5 nM enzyme: CDK9/CyclinT (Proqinase cat#0371-0345-1), 400 nM TAMRA-Rbtide (synthetic 15-mer peptide derived from human retinoblastoma tumor suppressor protein labeled with TAMRA dye, Genecust Europe), 12 μM ATP (=Kmapp, Sigma-Aldrich) and kinase buffer: 20 mM MOPS pH 7 (Sigma-Aldrich), 1 mM DTT (Sigma-Aldrich), 10 mM MgCl2 (Sigma-Aldrich), 0.01% Tween 20 (Sigma-Aldrich).
# For each reaction, 4 or 6 μl containing TAMRA-Rbtide, ATP and kianse buffer were combined with 2 μl diluted compound in H2O or 0.028 μl compound in 100% DMSO. The kinase reaction was started by the addition of 2 μl diluted enzyme. The reaction was allowed to run for 1 hour at room temperature. The reaction was stopped by adding 15 μl IMAP beads (1:400 beads in progressive (100% buffer A) 1× buffer).
# Primary T cells = assay: Cytotoxicity, viability by flow cytometry; type: cell-based
# Protocol: Primary T cells are cultured and treated with different concentrations of the test compound. Viability is analysed by measuring through flow cytometry based techniques the percentage of viable cells, compared to untreated control=100%).
# [2] = Table 4, toxic dose 50%, viable cells
# Chain of human CDK9/CyclinT kinase complex (P50750 whole entry): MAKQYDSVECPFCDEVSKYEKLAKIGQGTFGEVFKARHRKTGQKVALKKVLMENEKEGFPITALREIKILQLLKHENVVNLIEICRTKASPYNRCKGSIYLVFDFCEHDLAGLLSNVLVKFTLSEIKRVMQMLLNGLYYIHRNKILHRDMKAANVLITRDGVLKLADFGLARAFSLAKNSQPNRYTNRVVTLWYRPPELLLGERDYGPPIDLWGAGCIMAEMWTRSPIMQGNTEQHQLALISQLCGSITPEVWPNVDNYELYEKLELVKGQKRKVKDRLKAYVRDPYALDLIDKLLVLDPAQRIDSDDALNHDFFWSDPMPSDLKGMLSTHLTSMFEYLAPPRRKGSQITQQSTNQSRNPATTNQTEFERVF
# Chain of human CDK9/CyclinT kinase complex (O60563 whole entry partner): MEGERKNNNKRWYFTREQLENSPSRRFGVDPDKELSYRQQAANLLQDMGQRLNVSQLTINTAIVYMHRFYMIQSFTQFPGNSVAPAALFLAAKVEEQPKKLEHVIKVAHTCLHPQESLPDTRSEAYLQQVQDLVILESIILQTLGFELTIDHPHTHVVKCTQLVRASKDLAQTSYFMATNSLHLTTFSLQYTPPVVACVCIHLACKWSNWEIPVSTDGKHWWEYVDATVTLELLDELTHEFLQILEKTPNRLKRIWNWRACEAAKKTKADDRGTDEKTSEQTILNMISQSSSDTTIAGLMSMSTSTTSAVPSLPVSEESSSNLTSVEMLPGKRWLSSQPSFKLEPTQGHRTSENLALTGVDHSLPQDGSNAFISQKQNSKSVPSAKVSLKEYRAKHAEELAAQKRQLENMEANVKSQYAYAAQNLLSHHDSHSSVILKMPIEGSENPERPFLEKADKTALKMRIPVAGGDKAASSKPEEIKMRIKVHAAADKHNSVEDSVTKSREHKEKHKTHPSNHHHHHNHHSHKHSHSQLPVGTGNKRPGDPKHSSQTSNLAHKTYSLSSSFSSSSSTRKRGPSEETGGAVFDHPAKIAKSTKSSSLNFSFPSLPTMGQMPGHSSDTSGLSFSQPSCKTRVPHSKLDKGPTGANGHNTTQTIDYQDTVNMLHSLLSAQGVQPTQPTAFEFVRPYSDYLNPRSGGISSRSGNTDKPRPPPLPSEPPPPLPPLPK
SMILES,pIC50 ([1]; Table 1),TD50 (Primary T cells),other results
"CCOc1ccc(F)cc1-c1cc(Nc2cc(C(N)=O)c(OC)cc2F)ncn1 [Example 148, 5-[6-(2-Ethoxy-5-fluoro-phenyl)-pyrimidin-4-ylamino]-4-fluoro-2-methoxy-benzamide]",> 5.00,1 µM,–
"COc1ccc(-c2cc(Nc3ccc(OC)c(N)c3)ncn2)cc1 [Example 66, 4-Methoxy-N^1-[6-(4-methoxy-phenyl)-pyrimidin-4-yl]-benzene-1,3-diamine]",–,>10 µM,pIC50 [1]: < 5.00
"CNC(=O)c1cc(Nc2cc(-c3ccccc3OC)ncn2)ccc1OC [Example 25, 2-Methoxy-5-(6-(2-methoxyphenyl)pyrimidin-4-ylamino)-N-methylbenzamide]",> 6.00,>0.5 µM,–
"COc1ccc(Nc2cc(-c3ccccc3OC)ncn2)cc1C(=O)N(C)N [Example 46, 2-Methoxy-5-[6-(2-methoxy-phenyl)-pyrimidin-4-ylamino]-benzoic acid N-methyl-hydrazide]",> 6.00,–,pIC50 ([1]; Table 5): > 6.00; TD50 (Primary T cells; [2]): >10 µM; TD50 (Primary T cells; Table 5): >10 µM
"COc1ccc(Nc2cc(-c3ccccc3OC)ncn2)cc1C(=O)NN [Example 33, 2-Methoxy-5-(6-(2-methoxyphenyl)pyrimidin-4-ylamino)benzohydrazide]",> 7.00,>5 µM,–
"COc1ccccc1-c1cc(Nc2ccc(Cl)c(CN3C(=O)c4ccccc4C3=O)c2)ncn1 [Example 20, 2-(2-Chloro-5-(6-(2-methoxyphenyl)pyrimidin-4-ylamino)benzyl)isoindoline-1,3-dione]",–,–,pIC50 [1]: > 5.00; TD50 (Primary T cells; [2]): >0.5 µM
"COc1ccc(Nc2cc(-c3ccccc3OC)ncn2)cc1CNCc1ccccc1 [Example 1, N-(3-((Benzylamino)methyl)-4-methoxyphenyl)-6-(2-methoxyphenyl)pyrimidin-4-amine]",–,3.5 µM,pIC50 [1]: > 6.00
"COc1cc(F)ccc1-c1cc(Nc2cc(F)c(OC)c(C(N)=O)c2)ncn1 [Example 138, 3-Fluoro-5-[6-(4-fluoro-2-methoxy-phenyl)-pyrimidin-4-ylamino]-2-methoxy-benzamide]",> 5.00,>20 µM,–
"COc1ccccc1-c1cc(Nc2ccc(Cl)c(C(=O)NN)c2)ncn1 [Example 7, 2-Chloro-5-(6-(2-methoxyphenyl)pyrimidin-4-ylamino)benzohydrazide]",> 7.00,>5 µM,–
COc1ccccc1-c1cc(Nc2ccc(N3CCN(C)CC3)c(CO)c2)ncn1 [Example 17],–,>0.5 µM,–
"COc1ccc(Nc2cc(-c3ccccc3OC)ncn2)cc1CN(C)C [Example 35, N-(3-((Dimethylamino)methyl)-4-methoxyphenyl)-6-(2-methoxyphenyl)pyrimidin-4-amine]",–,3 µM,–
"COc1ccc(Nc2cc(-c3ccccc3OC)ncn2)cc1NC(=O)OCC(Cl)(Cl)Cl [Example 27, 2,2,2-Trichloroethyl 2-methoxy-5-(6-(2-methoxyphenyl)pyrimidin-4-ylamino)phenylcarbamate]",–,–,pIC50 [1]: > 5.00; TD50 (Primary T cells; [2]): >0.5 µM
"COc1cccc(-c2cc(Nc3ccc(OC)c(N)c3)ncn2)c1 [Example 68, 4-Methoxy-N^1-[6-(3-methoxy-phenyl)-pyrimidin-4-yl]-benzene-1,3-diamine]",< 5.00,>10 µM,–
"CCOc1ccc(Nc2cc(-c3ccc(F)cc3OC)ncn2)cc1O [Example 114, 2-Ethoxy-5-[6-(4-fluoro-2-methoxy-phenyl)-pyrimidin-4-ylamino]-phenol]",–,10 µM,pIC50 [1]: > 6.00
"CCOc1cc(F)ccc1-c1cc(Nc2cc(F)c(OC)c(C(N)=O)c2)ncn1 [Example 139, 5-[6-(2-Ethoxy-4-fluoro-phenyl)-pyrimidin-4-ylamino]-3-fluoro-2-methoxy-benzamide]",> 5.00,>20 µM,–
"COc1ccc(Nc2cc(-c3ccccc3OC)ncn2)cc1NS(C)(=O)=O [Example 9, N-(2-Methoxy-5-(6-(2-methoxyphenyl)pyrimidin-4-ylamino)phenyl)methanesulfonamide]",–,>1.5 µM,–
"COC(=O)N(C)c1cc(Nc2cc(-c3ccccc3OC)ncn2)ccc1OC [Example 98, {2-Methoxy-5-[6-(2-methoxy-phenyl)-pyrimidin-4-ylamino]-phenyl}-methyl-carbamic acid methyl ester hydrochloride]",–,–,pIC50 [1]: > 6.00
"COc1ccc(-c2cc(Nc3ccc(OC)c([N+](=O)[O-])c3)ncn2)cc1 [Example 65, (4-Methoxy-3-nitro-phenyl)-[6-(4-methoxy-phenyl)-pyrimidin-4-yl]-amine]",–,–,pIC50 [1]: < 5.00
"COc1cc(Nc2cc(-c3ccccc3OC)ncn2)ccc1C(=O)NCCO [Example 135, N-(2-Hydroxy-ethyl)-2-methoxy-4-[6-(2-methoxy-phenyl)-pyrimidin-4-ylamino]-benzamide]",> 6.00,–,–

# The next lines start with results.
pIC50 ([1]; Table 1),SMILES,TD50 (Primary T cells),other results
> 6.00,"CCOc1cc(F)ccc1-c1cc(Nc2cc(N)c(OC)c(F)c2)ncn1 [Example 89, N^1-[6-(2-Ethoxy-4-fluoro-phenyl)-pyrimidin-4-yl]-5-fluoro-4-methoxy-benzene-1,3-diamine]",>20 µM,–
> 6.00,"COc1ccc(Nc2cc(-c3ccccc3OCc3ccccc3)ncn2)cc1N [Example 71, N^1-[6-(2-Benzyloxy-phenyl)-pyrimidin-4-yl]-4-methoxy-benzene-1,3-diamine]",>10 µM,pIC50 ([1]; Table 5): > 6.00
> 5.00,"COc1cc(F)c(Nc2cc(-c3ccccc3OC)ncn2)cc1N [Example 92, 4-Fluoro-6-methoxy-N^3-[6-(2-methoxy-phenyl)-pyrimidin-4-yl]-benzene-1,3-diamine]",>20 µM,–
> 6.00,"COc1ccccc1-c1cc(Nc2ccc(N3CCOCC3)c(CO)c2)ncn1 [Example 19, (5-(6-(2-Methoxyphenyl)pyrimidin-4-ylamino)-2-morpholinophenyl)methanol]",>0.5 µM,–
> 6.00,"COC(=O)c1ccc(Nc2cc(-c3ccccc3OC)ncn2)cc1OC [Example 133, 2-Methoxy-4-[6-(2-methoxy-phenyl)-pyrimidin-4-ylamino]-benzoic acid methyl ester]",>10 µM,pIC50 ([1]; Table 5): > 6.00
> 6.00,"COc1ccc(Nc2cc(-c3cc(F)ccc3OC)ncn2)cc1O [Example 122, 5-[6-(5-Fluoro-2-methoxy-phenyl)-pyrimidin-4-ylamino]-2-methoxy-phenol]",>2 µM,–
> 6.00,"CCOc1ccc(Nc2cc(-c3ccc(F)cc3OC)ncn2)cc1N [Example 105, 4-Ethoxy-N^1-[6-(4-fluoro-2-methoxy-phenyl)-pyrimidin-4-yl]-benzene-1,3-diamine]",7 µM,–
> 6.00,"COC(=O)c1cc(Nc2cc(-c3ccccc3OC)ncn2)ccc1O [Example 21, Methyl 2-hydroxy-5-(6-(2-methoxyphenyl)pyrimidin-4-ylamino)benzoate]",>0.5 µM,–
> 6.00,"COc1ccc(Nc2cc(-c3ccc(F)cc3OC(C)C)ncn2)cc1N [Example 86, N^1-[6-(4-Fluoro-2-isopropoxy-phenyl)-pyrimidin-4-yl]-4-methoxy-benzene-1,3-diamine]",4 µM,–
> 7.00,"COc1ccccc1-c1cc(Nc2ccc(F)c(Cn3cnc4ccccc43)c2)ncn1 [Example 40, N-(3-((1H-Benzo[d]imidazol-1-yl)methyl)-4-fluorophenyl)-6-(2-methoxyphenyl)pyrimidin-4-amine]",0.4 µM,–
< 5.00,"COc1ccc(Nc2cc(-c3ccccc3O)ncn2)cc1N [Example 70, 2-[6-(3-Amino-4-methoxy-phenylamino)-pyrimidin-4-yl]-phenol]",>10 µM,–
> 6.00,"COc1ccc(Nc2cc(-c3ccccc3OC)ncn2)cc1NC(N)=O [Example 56, {2-Methoxy-5-[6-(2-methoxy-phenyl)-pyrimidin-4-ylamino]-phenyl}-urea]",–,–
> 6.00,"COc1ccc(F)cc1-c1cc(Nc2cc(N)c(OC)c(F)c2)ncn1 [Example 91, 5-Fluoro-N^1-[6-(5-fluoro-2-methoxy-phenyl)-pyrimidin-4-yl]-4-methoxy-benzene-1,3-diamine]",–,–
> 6.00,"CCOc1ccc(Nc2cc(-c3ccc(F)cc3OC)ncn2)cc1[N+](=O)[O-] [Example 103, (4-Ethoxy-3-nitro-phenyl)-[6-(4-fluoro-2-methoxy-phenyl)-pyrimidin-4-yl]-amine]",–,–
> 5.00,"COc1ccccc1-c1cc(Nc2ccc(Oc3ccccc3)c(N)c2)ncn1 [Example 97, N^1-[6-(2-Methoxy-phenyl)-pyrimidin-4-yl]-4-phenoxy-benzene-1,3-diamine]",–,–
> 6.00,"COc1ccc(Nc2cc(-c3ccccc3OC)ncn2)cc1NC(=O)C(C)(C)C [Example 53, N-{2-Methoxy-5-[6-(2-methoxy-phenyl)-pyrimidin-4-ylamino]-phenyl}-2,2-dimethyl-propionamide]",–,–
> 5.00,"COc1ccc(Nc2cc(-c3ccccc3OC(C)C)ncn2)cc1[N+](=O)[O-] [Example 78, [6-(2-Isopropoxy-phenyl)-pyrimidin-4-yl]-(4-methoxy-3-nitro-phenyl)-amine]",–,–
